Consider 23 compounds from patent US20250320213A1, “Nitrogen-Containing Heterocyclic Compounds” (Pfizer Inc., priority 2024, published 2025).

The subject of test [1] is CCL17 secretion in peripheral human whole blood. Briefly: Human Whole Blood (HWB) CCL17 TR-FRET Assay (IL-13 stimulated CCL17 secretion). To be noted: human whole blood. It is filed as cell-based. A digest of the protocol: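 IC50 comes from serum CCL17 measured by a TR-FRET sandwich assay (16 h at room temperature, 665/615 nm ratio). Beforehand, blood in sodium heparin was exposed to an 11-point, 3-fold compound series for 2 h at 37°C and then to 10 ng/mL IL-13 for 48 h.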
On the technique in general: Time-resolved FRET reads energy transfer from a long-lived donor to a nearby acceptor.

The next test deals with T1, STAT6 (Homo sapiens, UniProt P42226).
T1 construct: stably transfected HaCaT keratinocyte cell line, which expresses NanoLuc luciferase reporter gene under the transcriptional control of the STAT6 responsive promoter; endogenous in cells; host or cells: HaCaT keratinocyte reporter cell line (stably transfected with a NanoLuc reporter)
T1 sequence (P42226 1-847): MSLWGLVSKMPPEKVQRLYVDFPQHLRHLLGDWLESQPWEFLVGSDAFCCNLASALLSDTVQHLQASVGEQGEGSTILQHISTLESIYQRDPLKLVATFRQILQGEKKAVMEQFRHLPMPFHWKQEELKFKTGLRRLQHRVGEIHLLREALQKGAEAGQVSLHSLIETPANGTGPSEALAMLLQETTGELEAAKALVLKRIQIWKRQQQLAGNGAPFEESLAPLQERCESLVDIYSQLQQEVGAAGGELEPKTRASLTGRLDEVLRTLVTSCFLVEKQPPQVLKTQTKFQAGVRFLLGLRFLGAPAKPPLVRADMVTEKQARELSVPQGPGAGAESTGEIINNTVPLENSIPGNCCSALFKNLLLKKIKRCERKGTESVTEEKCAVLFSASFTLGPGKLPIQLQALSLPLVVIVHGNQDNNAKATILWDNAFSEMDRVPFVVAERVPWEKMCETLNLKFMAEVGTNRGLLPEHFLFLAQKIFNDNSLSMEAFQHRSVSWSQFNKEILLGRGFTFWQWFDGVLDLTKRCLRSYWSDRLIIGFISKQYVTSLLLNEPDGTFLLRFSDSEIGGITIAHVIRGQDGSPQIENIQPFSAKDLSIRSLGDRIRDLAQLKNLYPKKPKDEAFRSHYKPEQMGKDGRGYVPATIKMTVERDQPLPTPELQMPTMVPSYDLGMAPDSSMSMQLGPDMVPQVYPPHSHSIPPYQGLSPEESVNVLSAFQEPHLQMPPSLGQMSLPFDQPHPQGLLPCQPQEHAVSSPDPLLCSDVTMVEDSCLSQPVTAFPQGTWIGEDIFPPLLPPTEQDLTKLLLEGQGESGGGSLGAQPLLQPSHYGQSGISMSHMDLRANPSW
As to the kind of experiment: STAT6 Reporter Luciferase Assay (IL-13 stimulated HaCaT keratinocyte NanoLuc reporter cells). Type of test: cell-based. To be noted: IL-13 stimulated HaCaT STAT6 NanoLuc reporter cells; read-out: Reporter EC50. A digest of the protocol: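 IL-13 (0.12 nM, 4 h) stimulated STAT6 reporter activity in HaCaT cells after a 2 h compound pre-incubation; NanoLuc signal was measured.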

Where [2] appears, read: Homo sapiens, 48 h, IL-13 stimulated.
Where [3] appears, read: Homo sapiens, 48 h, 10 ng/mL IL13, 48 hours.

As a reminder, the IC50 is the concentration that inhibits the measured activity by half. Read a low IC50 as inhibition by little substance. Usually EC50 stands for the midpoint of the concentration-response curve.

`CCn1nc(C(=O)NCc2ccc(C(=O)NC)cc2)c2c1C(C(F)(F)F)CN(c1ccc(C(=O)N(C)C)cn1)C2` (single isomer, unassigned) [Example 468, rel-(R or S)-5-(5-(dimethylcarbamoyl)pyridin-2-yl)-1-ethyl-N-(4-(methylcarbamoyl)benzyl)-7-(trifluoromethyl)-4,5,6,7-tetrahydro-1H-pyrazolo[4,3-c]pyridine-3-carboxamide] yielded a 50% inhibitory concentration (IC50) in test [1] (IL-13 stimulated, 48 hours) of 12 nM. In addition, the EC50 on STAT6 came out at 2.2 nM.
The like results for `CC(C)n1nc(C(=O)NCc2ccc(NC(=O)N(C)C)cc2)c2c1C(O)CN(c1ccc(C(=O)N(C)C)cn1)C2` (single isomer, unassigned) [Example 474, rel-(R or S)-5-(5-(dimethylcarbamoyl)pyridin-2-yl)-N-(4-(3,3-dimethylureido)benzyl)-7-hydroxy-1-isopropyl-4,5,6,7-tetrahydro-1H-pyrazolo[4,3-c]pyridine-3-carboxamide] were, in that order, 85 nM and 40 nM.
The like results for `CC(C)n1nc(C(=O)NCc2ccc(NC(=O)N(C)C)cc2)c2c1C(O)CN(c1ccc(C(=O)N(C)C)cn1)C2` (single isomer, unassigned) [Example 475, rel-(R or S)-5-(5-(dimethylcarbamoyl)pyridin-2-yl)-N-(4-(3,3-dimethylureido)benzyl)-7-hydroxy-1-isopropyl-4,5,6,7-tetrahydro-1H-pyrazolo[4,3-c]pyridine-3-carboxamide] were, in that order, 215 nM and 72 nM.
The corresponding values for `CC(C)n1nc(C(=O)NCc2ccc(NC(=O)N(C)C)cc2)c2c1C(C(F)F)CN(c1ccc(C(=O)N(C)C)cn1)C2` (single isomer, unassigned) [Example 493, rel-(R or S)-7-(difluoromethyl)-5-(5-(dimethylcarbamoyl)pyridin-2-yl)-N-(4-(3,3-dimethylureido)benzyl)-1-isopropyl-4,5,6,7-tetrahydro-1H-pyrazolo[4,3-c]pyridine-3-carboxamide] are 203 nM and 28 nM.
Turning to `CC(C)n1nc(C(=O)NCc2ccc(NC(=O)N(C)C)cc2)c2c1C(C(F)F)CN(c1ccc(C(=O)N(C)C)cn1)C2` (single isomer, unassigned) [Example 494, rel-(R or S)-7-(difluoromethyl)-5-(5-(dimethylcarbamoyl)pyridin-2-yl)-N-(4-(3,3-dimethylureido)benzyl)-1-isopropyl-4,5,6,7-tetrahydro-1H-pyrazolo[4,3-c]pyridine-3-carboxamide], in test [1] (IL-13 stimulated, 48 hours), inhibition was half-maximal at 4 nM (IC50). The EC50 at STAT6 amounted to 0.5 nM.
`CC(C)n1nc(C(=O)NCc2ccc(NC(=O)N(C)C)cc2)c2c1CCN(c1ccc(C(=O)N(C)C)cn1)[C@@H]2C` (single isomer, unassigned) [Example 506] yielded an IC50 in test [1] (setting [2]) of 14 nM. Further, on STAT6, the EC50 stood at 2 nM.
In turn, `CC(C)n1nc(C(=O)NCc2ccc(NC(=O)N(C)C)cc2)c2c1CCN(c1ccc(C(=O)N(C)C)cn1)[C@H]2C` (single isomer, unassigned) [Example 507] came in with an IC50 in test [1] (setting [2]) of 1650 nM. In addition, the 50% effective concentration (EC50) at STAT6 turned out to be 136 nM.
The like results for `CC(C)n1nc(C(=O)NCc2ccc(NC(=O)N(C)C)cc2)c2c1CCN(c1ncc(C(=O)N(C)C)cn1)[C@@H]2C` (single isomer, unassigned) [Example 508] were, in that order, 20 nM and 7 nM.
Regarding `CC(C)n1nc(C(=O)NCc2ccc(NC(=O)N(C)C)cc2)c2c1CCN(c1ncc(C(=O)N(C)C)cn1)[C@H]2C` (single isomer, unassigned) [Example 509], half-maximal inhibition in test [1] (setting [2]) (IC50) was put at 8170 nM. Besides, at STAT6, the concentration giving a half-maximal response (EC50) turned out to be 3320 nM.
On to `CCn1nc(C(=O)NCc2ccc(NC(=O)N(C)C)cc2)c2c1CCN(c1ncc(C(=O)N(C)C)cn1)[C@H]2C` (single isomer, unassigned) [Example 510], for which the IC50 in test [1] (setting [2]) came out at 8830 nM. At STAT6, the EC50 came out at 1520 nM.
Compound `CCn1nc(C(=O)NCc2ccc(NC(=O)N(C)C)cc2)c2c1CCN(c1ncc(C(=O)N(C)C)cn1)[C@@H]2C` (single isomer, unassigned) [Example 511] yielded a concentration for half-maximal inhibition (IC50) in test [1] (setting [2]) of 29 nM. In addition, the EC50 on STAT6 came to 6 nM.
The corresponding values for `CNC(=O)Nc1ccc(CNC(=O)c2nn(C(C)C)c3c2CN(c2ncc(-c4nccn4C)cn2)C[C@@H]3C)cc1` (single isomer, unassigned) [Example 515] are 6 nM and 1 nM.
For `CC[C@H]1c2c(C(=O)NCc3ccc(NC(=O)N(C)C)cc3)nn(C(C)C)c2CCN1c1ccc(C(=O)N(C)C)cn1` (single isomer, unassigned) [Example 527], in test [1] (10 ng/mL IL13, 48 hours), the IC50 is more than 25100 nM. The EC50 on STAT6 is 8870 nM.
The like results for `CC[C@H]1c2c(C(=O)NCc3ccc(NC(=O)N(C)C)cc3)nn(C(C)C)c2CCN1c1ccc(C(=O)N(C)C)cn1` (single isomer, unassigned) [Example 528] were, in that order, 67 nM and 17 nM.
As for `CC(C)n1nc(C(=O)NCc2ccc(NC(=O)N(C)C)cc2)c2c1[C@@H](C)CN(c1ccc(C(=O)N(C)C)cn1)[C@@H]2C` (single isomer, unassigned) [Example 529], inhibition in test [1] (setting [3]) was half-maximal at 4 nM (IC50). Also, the half-maximal effective concentration (EC50) on STAT6 came to 0.1 nM.
Consider `CC(C)c1nc(C(=O)NCc2ccc(NC(=O)N(C)C)cc2)c2n1C(C)CN(c1ccc(C(=O)N(C)C)cc1)C2` (single isomer, unassigned) [Example 538, rel-(R or S)-7-(4-(Dimethylcarbamoyl)phenyl)-N-(4-(3,3-dimethylureido)benzyl)-3-isopropyl-5-methyl-5,6,7,8-tetrahydroimidazo[1,5-a]pyrazine-1-carboxamide], for which, in test [1] (10 ng/mL IL13, 48 hours), inhibition was half-maximal at 5 nM (IC50). Also, the concentration for a half-maximal effect (EC50) at STAT6 is 0.2 nM.
The like results for `CC(C)c1nc(C(=O)NCc2ccc(NC(=O)N(C)C)cc2)c2n1C(C)CN(c1ccc(C(=O)N(C)C)cc1)C2` (single isomer, unassigned) [Example 539, rel-(R or S)-7-(4-(Dimethylcarbamoyl)phenyl)-N-(4-(3,3-dimethylureido)benzyl)-3-isopropyl-5-methyl-5,6,7,8-tetrahydroimidazo[1,5-a]pyrazine-1-carboxamide] were, in that order, 72 nM and 13 nM.
The like results for `CC(C)n1nc(C(=O)NCc2ccc(NC(=O)N(C)C)cc2)c2c1C(C(F)(F)F)CN(c1ccc(C(=O)N(C)C)cn1)C2` (single isomer, unassigned) [Example 547, rel-(R or S)-5-(5-(Dimethylcarbamoyl)pyridin-2-yl)-N-(4-(3,3-dimethylureido)benzyl)-1-isopropyl-7-(trifluoromethyl)-4,5,6,7-tetrahydro-1H-pyrazolo[4,3-c]pyridine-3-carboxamide] were, in that order, 3 nM and 0.2 nM.
The corresponding values for `CC(C)n1nc(C(=O)NCc2ccc(NC(=O)N(C)C)cc2)c2c1C(C(F)(F)F)CN(c1ccc(C(=O)N(C)C)cn1)C2` (single isomer, unassigned) [Example 548, rel-(R or S)-5-(5-(Dimethylcarbamoyl)pyridin-2-yl)-N-(4-(3,3-dimethylureido)benzyl)-1-isopropyl-7-(trifluoromethyl)-4,5,6,7-tetrahydro-1H-pyrazolo[4,3-c]pyridine-3-carboxamide] are 199 nM and 15 nM.
As to `CC(C)n1nc(C(=O)NCc2ccc(-c3ncc[nH]3)cc2)c2c1[C@H](C)CN(c1ncc(C(=O)N(C)C)cn1)C2` (single isomer, unassigned) [Example 549], in test [1] (setting [3]), it took 1100 nM to reach half-maximal inhibition (IC50). The EC50 on STAT6 is 99 nM.
The corresponding values for `C[C@@H]1CN(c2ccc(C(=O)N(C)C)cn2)Cc2c(C(=O)NCc3ccc(NC(=O)N(C)C)cc3)nn(CC(F)(F)F)c21` (single isomer, unassigned) [Example 550] are 85 nM and 11 nM.
For the compound `C[C@@H]1CN(c2ccc(C(=O)N(C)C)cn2)Cc2c(C(=O)NCc3ccc(NC(=O)N(C)C)cc3)nn(C3(C)CC3)c21` (single isomer, unassigned) [Example 551], the midpoint of inhibition in test [1] (setting [3]), the IC50, lay at 104 nM. Also, on STAT6, the EC50 is 12 nM.
As for `CC(C)n1nc(C(=O)NCc2ccc(NC(=O)N(C)C)cc2)c2c1[C@H](C)CN(c1ncc(C(=O)N(C)C)cn1)C2` (single isomer, unassigned) [Example 552], half-maximal inhibition in test [1] (setting [3]) (IC50) required 87 nM. For the same compound, the half-maximal effective concentration (EC50) on STAT6 stood at 34 nM.
